From PubChem BioAssay AID2060895 (Molecular Pharmacology Branch, DTP, NCI, 2025)
Blank lines part the entries; values can stand above or below the molecule they belong to.

Tested on: PDC 899932-113-R3-J6 complex spheroid viability
Experiment: Anticancer human tumor 899932-113-R3-J6-PDC patient-derived melanoma cell line growth inhibition [RAS]
Details: for IC50: curve of first compound; for viability, T/C: stronger effect = lower value
Procedure, shortened: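 Multi-cell-type spheroids: tumor cells plus HUVEC endothelial cells and mesenchymal stem cells. RAS-pathway inhibitors were combined with targeted agents, each dosed in half-log steps down from clinical Cmax, or from 10 microM when Cmax was unknown.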

[1] = second compound 0.000949 µM, first compound 0.0316 µM
[2] = second compound 0.000949 µM, first compound 0.1 µM
[3] = second compound 0.000949 µM, first compound 0.316 µM
[4] = second compound 0.000949 µM, first compound 1 µM
[5] = second compound 0.000949 µM, first compound 3.16 µM
[6] = second compound 0.000949 µM, first compound 10 µM
[7] = second compound 0.003 µM, first compound 0.0316 µM
[8] = second compound 0.003 µM, first compound 0.1 µM
[9] = second compound 0.003 µM, first compound 0.316 µM
[10] = second compound 0.003 µM, first compound 1 µM
[11] = second compound 0.003 µM, first compound 3.16 µM
[12] = second compound 0.003 µM, first compound 10 µM
[13] = second compound 0.00949 µM, first compound 0.0316 µM
[14] = second compound 0.00949 µM, first compound 0.1 µM
[15] = second compound 0.00949 µM, first compound 0.316 µM
[16] = second compound 0.00949 µM, first compound 1 µM
[17] = second compound 0.00949 µM, first compound 3.16 µM
[18] = second compound 0.00949 µM, first compound 10 µM
[19] = second compound 0.03 µM, first compound 0.0316 µM
[20] = second compound 0.03 µM, first compound 0.1 µM
[21] = second compound 0.03 µM, first compound 0.316 µM
[22] = second compound 0.03 µM, first compound 1 µM
[23] = second compound 0.03 µM, first compound 3.16 µM
[24] = second compound 0.03 µM, first compound 10 µM
[25] = second compound 0.0949 µM, first compound 0.0316 µM
[26] = second compound 0.0949 µM, first compound 0.1 µM
[27] = second compound 0.0949 µM, first compound 0.316 µM
[28] = second compound 0.0949 µM, first compound 1 µM
[29] = second compound 0.0949 µM, first compound 3.16 µM
[30] = second compound 0.0949 µM, first compound 10 µM
[31] = second compound 0.3 µM, first compound 0.0316 µM
[32] = second compound 0.3 µM, first compound 0.1 µM
[33] = second compound 0.3 µM, first compound 0.316 µM
[34] = second compound 0.3 µM, first compound 1 µM
[35] = second compound 0.3 µM, first compound 3.16 µM
[36] = second compound 0.3 µM, first compound 10 µM
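For viability, T/C in this document: spheroids exposed to agents for seven days before readout; 100% = DMSO vehicle control wells.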

SMILES: CC1(O)CCCC1n1c(=O)c(C(F)F)cc2cnc(NC3CCN(S(C)(=O)=O)CC3)nc21 (stereo not given) + CCn1c(-c2cc(N3CCN(C)CC3)cnc2C(C)OC)c2c3cc(ccc31)-c1csc(n1)CC(NC(=O)C1CC1C)C(=O)N1CCCC(N1)C(=O)OCC(C)(C)C2
IC50 (second compound 0.000949 µM): 239 nM
IC50 (second compound 0.003 µM): < 31.6 nM
IC50 (second compound 0.00949 µM): < 31.6 nM
IC50 (second compound 0.03 µM): < 31.6 nM
IC50 (second compound 0.0949 µM): < 31.6 nM
IC50 (second compound 0.3 µM): < 31.6 nM
viability, T/C [1]: 77.9%
viability, T/C [2]: 54.2%
viability, T/C [3]: 49.5%
viability, T/C [4]: 39.3%
viability, T/C [5]: 37.1%
viability, T/C [6]: 27.2%
viability, T/C [7]: 41.5%
viability, T/C [8]: 33%
viability, T/C [9]: 27.5%
viability, T/C [10]: 25.6%
viability, T/C [11]: 26.6%
viability, T/C [12]: 14.1%
viability, T/C [13]: 4.88%
viability, T/C [14]: 6.46%
viability, T/C [15]: 7.99%
viability, T/C [16]: 9.02%
viability, T/C [17]: 8.75%
viability, T/C [18]: 4.7%
viability, T/C [19]: 2.99%
viability, T/C [20]: 2.96%
viability, T/C [21]: 3.21%
viability, T/C [22]: 3.04%
viability, T/C [23]: 3.2%
viability, T/C [24]: 1.24%
viability, T/C [25]: 2.41%
viability, T/C [26]: 2.7%
viability, T/C [27]: 2.57%
viability, T/C [28]: 3.02%
viability, T/C [29]: 2.41%
viability, T/C [30]: 0.82%
viability, T/C [31]: 1.98%
viability, T/C [32]: 2.13%
viability, T/C [33]: 2.07%
viability, T/C [34]: 1.97%
viability, T/C [35]: 2.39%
viability, T/C [36]: 0.63%

SMILES: CCC(CC)c1cc(NC2CCC(N)C2)n2nccc2n1 (stereo not given) + CCn1c(-c2cc(N3CCN(C)CC3)cnc2C(C)OC)c2c3cc(ccc31)-c1csc(n1)CC(NC(=O)C1CC1C)C(=O)N1CCCC(N1)C(=O)OCC(C)(C)C2
IC50 (second compound 0.000949 µM): 1070 nM
IC50 (second compound 0.003 µM): < 31.6 nM
IC50 (second compound 0.00949 µM): < 31.6 nM
IC50 (second compound 0.03 µM): < 31.6 nM
IC50 (second compound 0.0949 µM): < 31.6 nM
IC50 (second compound 0.3 µM): < 31.6 nM
viability, T/C [1]: 69.1%
viability, T/C [2]: 73.5%
viability, T/C [3]: 64.5%
viability, T/C [4]: 53.2%
viability, T/C [5]: 0.22%
viability, T/C [6]: 0.15%
viability, T/C [7]: 28.8%
viability, T/C [8]: 28.2%
viability, T/C [9]: 26.5%
viability, T/C [10]: 16.3%
viability, T/C [11]: 0.58%
viability, T/C [12]: 0.66%
viability, T/C [13]: 3.22%
viability, T/C [14]: 4.26%
viability, T/C [15]: 3.48%
viability, T/C [16]: 4.75%
viability, T/C [17]: 0.1%
viability, T/C [18]: 0.59%
viability, T/C [19]: 3.14%
viability, T/C [20]: 3.12%
viability, T/C [21]: 3.99%
viability, T/C [22]: 2.67%
viability, T/C [23]: 0.09%
viability, T/C [24]: 0.83%
viability, T/C [25]: 2.55%
viability, T/C [26]: 2.58%
viability, T/C [27]: 2.46%
viability, T/C [28]: 1.27%
viability, T/C [29]: 0.74%
viability, T/C [30]: 0.84%
viability, T/C [31]: 2.43%
viability, T/C [32]: 3.04%
viability, T/C [33]: 2.55%
viability, T/C [34]: 1.37%
viability, T/C [35]: 0.48%
viability, T/C [36]: 0.89%

SMILES: CCN1CCN(Cc2ccc(Nc3ncc(F)c(-c4cc(F)c5nc(C)n(C(C)C)c5c4)n3)nc2)CC1 + CCn1c(-c2cc(N3CCN(C)CC3)cnc2C(C)OC)c2c3cc(ccc31)-c1csc(n1)CC(NC(=O)C1CC1C)C(=O)N1CCCC(N1)C(=O)OCC(C)(C)C2
IC50 (second compound 0.000949 µM): 220 nM
IC50 (second compound 0.003 µM): < 3.16 nM
IC50 (second compound 0.00949 µM): < 3.16 nM
IC50 (second compound 0.03 µM): < 3.16 nM
IC50 (second compound 0.0949 µM): < 3.16 nM
IC50 (second compound 0.3 µM): < 3.16 nM
viability, T/C (second compound 0.000949 µM, first compound 0.00316 µM): 80.5%
viability, T/C (second compound 0.000949 µM, first compound 0.01 µM): 75.5%
viability, T/C [1]: 75.2%
viability, T/C [2]: 63.3%
viability, T/C [3]: 43.7%
viability, T/C [4]: 18.3%
viability, T/C (second compound 0.003 µM, first compound 0.00316 µM): 38.1%
viability, T/C (second compound 0.003 µM, first compound 0.01 µM): 39.2%
viability, T/C [7]: 33.3%
viability, T/C [8]: 30.1%
viability, T/C [9]: 23.8%
viability, T/C [10]: 10.2%
viability, T/C (second compound 0.00949 µM, first compound 0.00316 µM): 4.63%
viability, T/C (second compound 0.00949 µM, first compound 0.01 µM): 4.32%
viability, T/C [13]: 4.31%
viability, T/C [14]: 3.66%
viability, T/C [15]: 5.16%
viability, T/C [16]: 6.09%
viability, T/C (second compound 0.03 µM, first compound 0.00316 µM): 3.02%
viability, T/C (second compound 0.03 µM, first compound 0.01 µM): 2.66%
viability, T/C [19]: 2.79%
viability, T/C [20]: 2.48%
viability, T/C [21]: 3.21%
viability, T/C [22]: 2.94%
viability, T/C (second compound 0.0949 µM, first compound 0.00316 µM): 2.31%
viability, T/C (second compound 0.0949 µM, first compound 0.01 µM): 2.1%
viability, T/C [25]: 2.15%
viability, T/C [26]: 2.33%
viability, T/C [27]: 2.24%
viability, T/C [28]: 2.47%
viability, T/C (second compound 0.3 µM, first compound 0.00316 µM): 1.97%
viability, T/C (second compound 0.3 µM, first compound 0.01 µM): 2.12%
viability, T/C [31]: 2.2%
viability, T/C [32]: 2.05%
viability, T/C [33]: 1.76%
viability, T/C [34]: 2.01%

Second part, led by results:

IC50 (second compound 0.000949 µM): > 10000 nM
IC50 (second compound 0.003 µM): < 31.6 nM
IC50 (second compound 0.00949 µM): < 31.6 nM
IC50 (second compound 0.03 µM): < 31.6 nM
IC50 (second compound 0.0949 µM): < 31.6 nM
IC50 (second compound 0.3 µM): < 31.6 nM
SMILES: Cc1nc(N2CCC3(CC2)COC(C)C3N)c(CO)nc1Sc1ccnc(N)c1Cl (stereo not given) + CCn1c(-c2cc(N3CCN(C)CC3)cnc2C(C)OC)c2c3cc(ccc31)-c1csc(n1)CC(NC(=O)C1CC1C)C(=O)N1CCCC(N1)C(=O)OCC(C)(C)C2
viability, T/C [1]: 70.1%
viability, T/C [2]: 71.2%
viability, T/C [3]: 76.8%
viability, T/C [4]: 78.6%
viability, T/C [5]: 80%
viability, T/C [6]: 83%
viability, T/C [7]: 29.8%
viability, T/C [8]: 29.9%
viability, T/C [9]: 30.1%
viability, T/C [10]: 31.8%
viability, T/C [11]: 38.8%
viability, T/C [12]: 35.3%
viability, T/C [13]: 3.52%
viability, T/C [14]: 3.03%
viability, T/C [15]: 2.45%
viability, T/C [16]: 2.29%
viability, T/C [17]: 2.72%
viability, T/C [18]: 2.76%
viability, T/C [19]: 2.9%
viability, T/C [20]: 2.41%
viability, T/C [21]: 2.2%
viability, T/C [22]: 2.42%
viability, T/C [23]: 1.4%
viability, T/C [24]: 1.8%
viability, T/C [25]: 2.84%
viability, T/C [26]: 2.97%
viability, T/C [27]: 1.92%
viability, T/C [28]: 2.03%
viability, T/C [29]: 1.67%
viability, T/C [30]: 0.79%
viability, T/C [31]: 2.22%
viability, T/C [32]: 2.77%
viability, T/C [33]: 1.95%
viability, T/C [34]: 2.27%
viability, T/C [35]: 1.64%
viability, T/C [36]: 1.71%

IC50 (second compound 0.000949 µM): > 10000 nM
IC50 (second compound 0.003 µM): < 31.6 nM
IC50 (second compound 0.00949 µM): < 31.6 nM
IC50 (second compound 0.03 µM): < 31.6 nM
IC50 (second compound 0.0949 µM): < 31.6 nM
IC50 (second compound 0.3 µM): < 31.6 nM
SMILES: NC1c2ccccc2OC12CCN(c1cnc3c(N4CCCc5ncccc54)n[nH]c3n1)CC2 (stereo not given) + CCn1c(-c2cc(N3CCN(C)CC3)cnc2C(C)OC)c2c3cc(ccc31)-c1csc(n1)CC(NC(=O)C1CC1C)C(=O)N1CCCC(N1)C(=O)OCC(C)(C)C2
viability, T/C [1]: 72.7%
viability, T/C [2]: 64.5%
viability, T/C [3]: 79.9%
viability, T/C [4]: 73.4%
viability, T/C [5]: 81%
viability, T/C [6]: 70.2%
viability, T/C [7]: 31.8%
viability, T/C [8]: 27.1%
viability, T/C [9]: 34.3%
viability, T/C [10]: 38%
viability, T/C [11]: 38.2%
viability, T/C [12]: 12.4%
viability, T/C [13]: 2.82%
viability, T/C [14]: 2.7%
viability, T/C [15]: 2%
viability, T/C [16]: 2.89%
viability, T/C [17]: 3.55%
viability, T/C [18]: 4.09%
viability, T/C [19]: 2.17%
viability, T/C [20]: 1.67%
viability, T/C [21]: 1.01%
viability, T/C [22]: 0.93%
viability, T/C [23]: 0.99%
viability, T/C [24]: 2.33%
viability, T/C [25]: 1.84%
viability, T/C [26]: 1.61%
viability, T/C [27]: 0.9%
viability, T/C [28]: 0.51%
viability, T/C [29]: 0.3%
viability, T/C [30]: 1.08%
viability, T/C [31]: 1.87%
viability, T/C [32]: 2.01%
viability, T/C [33]: 1.11%
viability, T/C [34]: 0.31%
viability, T/C [35]: 0.4%
viability, T/C [36]: 0.35%
